Source: ChEMBL document CHEMBL4118038, “Tricyclic Polyprenylated Acylphloroglucinols from St John's Wort, Hypericum perforatum” (J Nat Prod, 2017)

Target: Acetylcholinesterase (Homo sapiens, UniProt P22303)
Assay: Inhibition of human erythrocyte AChE using S-acetylthiocholine iodide as substrate preincubated for 20 mins followed by substrate addition measured every 30 secs for 1 hr by Ellman's method
Details: not given

Acetylcholinesterase, sequence (P22303 whole entry): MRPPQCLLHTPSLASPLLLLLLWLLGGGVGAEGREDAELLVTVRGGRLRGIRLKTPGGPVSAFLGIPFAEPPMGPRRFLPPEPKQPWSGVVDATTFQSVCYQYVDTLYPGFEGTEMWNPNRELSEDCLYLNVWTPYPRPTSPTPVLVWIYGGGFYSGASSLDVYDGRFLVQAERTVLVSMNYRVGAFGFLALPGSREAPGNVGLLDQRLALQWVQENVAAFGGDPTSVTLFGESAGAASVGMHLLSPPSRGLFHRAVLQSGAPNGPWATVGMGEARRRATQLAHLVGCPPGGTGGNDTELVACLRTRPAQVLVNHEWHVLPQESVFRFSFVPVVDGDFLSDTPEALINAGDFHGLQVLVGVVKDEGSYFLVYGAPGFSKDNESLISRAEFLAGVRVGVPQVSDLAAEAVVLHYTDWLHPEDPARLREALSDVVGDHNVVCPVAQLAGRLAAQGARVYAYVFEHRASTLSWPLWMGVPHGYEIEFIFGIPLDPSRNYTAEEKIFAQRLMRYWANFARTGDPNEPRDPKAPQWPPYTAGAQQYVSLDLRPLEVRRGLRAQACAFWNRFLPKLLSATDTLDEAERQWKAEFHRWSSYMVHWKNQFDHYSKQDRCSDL

Going from `COC(C)(C)/C=C/C[C@]1(C)[C@@H](CC=C(C)C)C[C@]2(CC=C(C)C)C(=O)C3=C(O[C@@H](C(C)(C)O)C3)[C@@]1(C(=O)C(C)C)C2=O` to `COC(C)(C)/C=C/C[C@]1(C)[C@@H](CC=C(C)C)C[C@]2(CC=C(C)C)C(=O)C3=C(O[C@H](C(C)(C)O)C3)[C@@]1(C(=O)C(C)C)C2=O`, the IC50 falls from 7.17 µM to 3.98 µM (1.8-fold). The second is the more potent here.

Going from `C=C(C)[C@@H](O)CC[C@]1(C)[C@@H](CC=C(C)C)C[C@]2(CC=C(C)C)C(=O)C3=C(O[C@H](C(C)(C)O)C3)[C@@]1(C(=O)C(C)C)C2=O` to `C=C(C)[C@H](O)CC[C@]1(C)[C@@H](CC=C(C)C)C[C@]2(CC=C(C)C)C(=O)C3=C(O[C@H](C(C)(C)O)C3)[C@@]1(C(=O)C(C)C)C2=O`, the IC50 rises from 10.7 µM to 19.6 µM (1.8-fold). The first is the more potent here.

`CC(C)=CCC[C@]1(C)[C@@H](CC=C(C)C)C[C@]2(CC=C(C)C)C(=O)C3=C(O[C@H](C(C)(C)O)[C@H]3O)[C@@]1(C(=O)C(C)C)C2=O` and `CC(C)=CCC[C@]1(C)[C@@H](CC=C(C)C)C[C@]2(CC=C(C)C)C(=O)C3=C(O[C@@H](C(C)(C)O)[C@@H]3O)[C@@]1(C(=O)C(C)C)C2=O` are within 1.5-fold of each other in IC50: 8.83 µM for the first, 12.6 µM for the second.

First: CC(C)=CCC1=C2O[C@H](C(C)(C)O)C[C@@]23C[C@H](CC=C(C)C)[C@@](C)(CCC(=O)C(C)C)[C@@](C(=O)C(C)C)(C1=O)C3=O
Second: C=C(C)[C@@H](O)CC[C@]1(C)[C@@H](CC=C(C)C)C[C@]23C[C@@H](C(C)(C)O)OC2=C(CC=C(C)C)C(=O)[C@@]1(C(=O)C(C)C)C3=O
The IC50 of the first is 2.7-fold higher: 24.3 µM for the first, 9.13 µM for the second. The second is the more potent here.

Compared with `CC(C)=CCC[C@]1(C)[C@@H](CC=C(C)C)C[C@@]2(CC=C(C)C)C(=O)[C@]1(C(=O)C(C)C)C(=O)C1=C2O[C@@H](C(C)(C)O)[C@@H]1O`, `CC(C)=CCC[C@]1(C)[C@@H](CC=C(C)C)C[C@@]2(CC=C(C)C)C(=O)[C@]1(C(=O)C(C)C)C(=O)C1=C2O[C@H](C(C)(C)O)[C@H]1O` is 1.6-fold higher in IC50: 11.3 µM for the first, 18.6 µM for the second. The first is the more potent here.

First: CC(C)=CC[C@H]1C[C@@]2(CC=C(C)C)C(=O)[C@](C(=O)C(C)C)(C(=O)C3=C2O[C@H](C(C)(C)O)C3)[C@]1(C)CCC(=O)C(C)C
Second: C=C(C)[C@H](O)CC[C@]1(C)[C@@H](CC=C(C)C)C[C@@]2(CC=C(C)C)C(=O)[C@]1(C(=O)C(C)C)C(=O)C1=C2O[C@H](C(C)(C)O)C1
The IC50 of the first is 2.4-fold lower: 10.9 µM for the first, 26.4 µM for the second. The first is the more potent here.

First: C=C(C)[C@H](O)CC[C@]1(C)[C@@H](CC=C(C)C)C[C@@]2(CC=C(C)C)C(=O)[C@]1(C(=O)C(C)C)C(=O)C1=C2O[C@@H](C(C)(C)O)C1
Second: CC(=O)[C@@]12C(=O)C(CC=C(C)C)=C3O[C@H](C(C)(C)O)C[C@]3(C[C@H](CC=C(C)C)[C@@]1(C)CCC=C(C)C)C2=O
The IC50 of the first is 2.9-fold higher: 25.1 µM for the first, 8.75 µM for the second. The second is the more potent here.

Tested on: SMMC-7721
Assay: Cytotoxicity against human SMMC7721 cells assessed as reduction in cell viability after 48 hrs by MTS assay
Format: functional, cell-based
Details: SMMC-7721, 48 h

`C=C(C)[C@H](O)CC[C@]1(C)[C@@H](CC=C(C)C)C[C@@]2(CC=C(C)C)C(=O)[C@]1(C(=O)C(C)C)C(=O)C1=C2O[C@H](C(C)(C)O)C1` and `CC(=O)[C@@]12C(=O)C(CC=C(C)C)=C3O[C@H](C(C)(C)O)C[C@]3(C[C@H](CC=C(C)C)[C@@]1(C)CCC=C(C)C)C2=O` are within 1.5-fold of each other in IC50: 9.1 µM for the first, 10 µM for the second.
